In US9358232B2, “Methods for treating cancer using TOR kinase inhibitor combination therapy” (Signal Pharmaceuticals, LLC, priority 2013, dated 2016):
“Also recorded” adds a separate entry of the source.

How the values were obtained:
WSU-DLCL2 xenograft = assay: DLBCL xenograft model; assay type: in vivo, SCID mice; conditions: for tumor volume reduction (TVR): Day 35, end of 3-week dosing, vs vehicle control (FIG. 1); for decrease in tumor volume (TVR): Day 34, vs vehicle, Compound 1 10 mg/kg QD, Compound A 30 mg/kg QD, alone or combined (FIGS. 2-3)
Procedure: Severe combined immunodeficiency (SCID) mice were implanted with human DLBCL cell line (WSU-DLCL2) into the flank. Treatment of compounds started between Day 11 and Day 14 after cell inoculation. Randomized groups of mice (n=9 to 10/group) were treated with the single agents (Compound 1, Compound A or Compound AA) or the combination of Compound 1/Compound A, Compound A/Compound AA, or Compound 1/Compound AA. Compounds were administered orally on a once daily (Compound 1 and Compound A) or twice daily […] schedule for 21 days. The positive control consisted of CHOP therapy (combination of cyclophosphamide, doxorubicin, vincristine and prednisone). Compound 1 and Compound A were formulated in CMC-Tween (carboxymethylcellulose/Tween 80/deionized water). Compound AA was suspended in DSP (dimethylsulphoxide/solutol/phosphate buffered saline).
Initial studies were conducted in order to determine the antitumor activity of Compound 1 and to identify a dose level for the combination studies. In the WSU-DLCL2 xenograft model, Compound 1 inhibited tumor growth in a dose-dependent fashion. […] In a subsequent combination study, Compound 1 was dosed at 10 mg/kg, once daily (QD). Compound A and Compound AA were dosed at 30 mg/kg (QD) and 50 mg/kg (BID), respectively.

B-cell = conditions: cited from earlier work
BTK = BTK (Homo sapiens, UniProt Q06187); conditions: enzymatic and cellular assays; cited from earlier work
BTK, sequence (Q06187 whole entry): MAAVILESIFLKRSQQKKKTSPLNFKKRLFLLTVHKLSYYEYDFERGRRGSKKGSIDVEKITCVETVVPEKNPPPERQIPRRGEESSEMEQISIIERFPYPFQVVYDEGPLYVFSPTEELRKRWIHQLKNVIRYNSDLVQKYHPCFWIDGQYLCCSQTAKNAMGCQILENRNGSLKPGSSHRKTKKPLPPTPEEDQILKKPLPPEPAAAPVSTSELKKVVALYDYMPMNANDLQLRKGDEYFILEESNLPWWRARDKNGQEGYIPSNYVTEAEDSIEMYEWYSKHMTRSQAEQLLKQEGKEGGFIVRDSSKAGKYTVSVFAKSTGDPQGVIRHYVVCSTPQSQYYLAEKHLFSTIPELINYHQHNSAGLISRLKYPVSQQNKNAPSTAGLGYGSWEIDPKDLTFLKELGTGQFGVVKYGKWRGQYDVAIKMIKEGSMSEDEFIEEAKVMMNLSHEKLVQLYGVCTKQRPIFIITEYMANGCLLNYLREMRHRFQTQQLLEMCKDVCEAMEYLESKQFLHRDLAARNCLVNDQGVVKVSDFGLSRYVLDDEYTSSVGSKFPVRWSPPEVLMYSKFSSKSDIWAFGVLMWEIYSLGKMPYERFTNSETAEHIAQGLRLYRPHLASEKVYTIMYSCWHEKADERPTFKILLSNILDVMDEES

[1] = combination study, Compound AA 50 mg/kg BID
[2] = combination study, single agents or in combination

| Structure (SMILES) | tumor volume reduction (TVR) (WSU-DLCL2 xenograft; 1 mg/kg oral once daily) [%] | tumor volume reduction (TVR) (WSU-DLCL2 xenograft; 3 mg/kg oral once daily) [%] | decrease in tumor volume (TVR) (WSU-DLCL2 xenograft; [1]) [%] | body weight loss (WSU-DLCL2 xenograft; [2]) | body weight loss (WSU-DLCL2 xenograft; initial dose study, 1, 3 and 10 mg/kg (FIG. 1)) | effect on B-cell proliferation and activation (B-cell) | inhibition of BTK (BTK) | antitumor activity as single agent (WSU-DLCL2 xenograft; [1]) |
| --- | --- | --- | --- | --- | --- | --- | --- | --- |
| CO[C@H]1CC[C@H](N2C(=O)CNc3ncc(-c4ccc(C(C)(C)O)nc4)nc32)CC1 [Compound 1, 7-(6-(2-hydroxypropan-2-yl)pyridin-3-yl)-1-((1r,4r)-4-methoxycyclohexyl)-3,4-dihydropyrazino-[2,3-b]pyrazin-2(1H)-one] | ~22 | ~28 | 29 | No significant body weight loss | No significant body weight loss | – | – | – |
| Cc1nc2cccc(N)c2c(=O)n1C1CCC(=O)NC1=O (centres unmarked) [Compound A, 3-(5-Amino-2-methyl-4-oxoquinazolin-3(4H)-yl)-piperidine-2,6-dione] | – | – | 30 | No significant body weight loss | – | – | – | – |
| C=CC(=O)Nc1cccc(Nc2nc(Nc3ccc(OCCOC)cc3)ncc2F)c1 [Compound AA, N-(3-(5-fluoro-2-(4-(2-methoxyethoxy)phenylamino)pyrimidin-4-ylamino)phenyl)acrylamide] | – | – | – | No significant body weight loss | – | inhibit B-cell proliferation and activation | covalent, irreversible inhibition of BTK | No significant antitumor activity; also recorded: inactive |
